According to patent US10406218B2 (priority 2014, dated 2019):
Where two headings read alike, the source gives them in different places.

Test system: PBMC from 30 HC individuals
Test: ex vivo IFNγ ELISPOT with NTM-specific peptides
Assay type: cell-based, human
[1] = response frequency among HC donors, NTM-specific peptides (Table 2)
[2] = total spot forming cells, IFNγ ELISPOT, NTM-specific peptides (Table 2)

Substance | Resp Freq [1] [%] | Total SFC [2] [SFC] | Resp Freq [%] | Total SFC [SFC]
205 (TTSLAFLVAFRPGLV) [Peptide 205] | 3 | 45 | – | –
PKLKQFMSDVVWIEH [Peptide 775] | 7 | 70 | 7 | 70
1529 (EGIVFALGGALDFSY) [Peptide 1529] | 3 | 23 | – | –
1218 (RTFFRYFPTKESVLF) [Peptide 1218] | 3 | 48 | – | –
712 (VVLMIFRPQGLFPAR) [Peptide 712] | 3 | 27 | – | –
697 (RSLMFPTLASLIEER) [Peptide 697] | 3 | 25 | – | –
531 (LDSFQLFPNFVILFW) [Peptide 531] | 3 | 28 | – | –
953 (FEHSVVNMFLFPSGL) [Peptide 953] | 3 | 25 | – | –
KWETFLTQELPAYLA [Peptide 741] | 13 | 248 | 13 | 248
1525 (FFHRGLMLMSFDEHL) [Peptide 1525] | 3 | 25 | – | –
538 (VEVVSAEALQLPLWG) [Peptide 538] | 3 | 30 | – | –
439 (GMVFQSFNLFAHKTI) [Peptide 439] | 3 | 28 | – | –
88 (ALVLVSLLTALAAGI) [Peptide 88] | 3 | 28 | – | –
RLFPVIRRYALAYHV [Peptide 582] | 10 | 158 | 10 | 158
1077 (GFVTEFLQREVQNFL) [Peptide 1077] | 3 | 22 | – | –
447 (DDRRTLLWLANQRAV) [Peptide 447] | 3 | 53 | – | –
1141 (HAEYKQVTVLFADVV) [Peptide 1141] | 3 | 38 | – | –
ALLYIPLLTRMLMNL [Peptide 777] | 7 | 87 | 7 | 87
QWGYRMVLPQLILMP [Peptide 868] | 3 | 58 | 3 | 58
175 (LDYFLNLMLRAPFRL) [Peptide 175] | 3 | 32 | – | –
1001 (KGGLRFHPSVYLGIV) [Peptide 1001] | 3 | 37 | – | –

Substance | Resp Freq [1] [%] | Total SFC [2] [SFC] | Resp Freq [%] | Total SFC [SFC]
GSMLWVAALIGEEIF [Peptide 587] | 7 | 68 | 7 | 68
424 (AVPNFALTPLLIIWM) [Peptide 424] | 3 | 55 | – | –
1571 (ADGLVLFNRFLQPDI) [Peptide 1571] | 3 | 48 | – | –
745 (VFALMGLRQLYFLLG) [Peptide 745] | 3 | 35 | – | –
LMVLFQYGVALHELE [Peptide 7] | 3 | 138 | 3 | 138
945 (ALIHVLWINAGLSCD) [Peptide 945] | 3 | 23 | – | –
588 (HLFQVMAFVVMEPPT) [Peptide 588] | 3 | 52 | – | –
841 (PQFLIMPKLIPALIA) [Peptide 841] | 3 | 48 | – | –
787 (DVDIDQLRSFLADKV) [Peptide 787] | 3 | 38 | – | –
405 (PLVYFIDSMLQVDDL) [Peptide 405] | 3 | 33 | – | –
SQRLVTLSYRLDAAA [Peptide 1471] | 7 | 58 | 7 | 58
937 (HLMQSVVMVSFPVEV) [Peptide 937] | 3 | 22 | – | –
LMLIWACDLIVAADN [Peptide 1224] | 10 | 97 | 10 | 97
1474 (MFETMAAFMLVEHAN) [Peptide 1474] | 3 | 23 | – | –
1072 (HIELALYRIAQECLQ) [Peptide 1072] | 3 | 37 | – | –
438 (GSVLLVQALLVTSLL) [Peptide 438] | 3 | 25 | – | –
861 (MVFATLLPLGVLQLY) [Peptide 861] | 3 | 47 | – | –
1134 (TLLTMLWQNLIGNAV) [Peptide 1134] | 3 | 47 | – | –
1255 (GNELWQIALLELWLQ) [Peptide 1255] | 3 | 37 | – | –
646 (ADAVNFGVAPAFIVY) [Peptide 646] | 3 | 37 | – | –
1542 (GRVAWNIVTSYLDSA) [Peptide 1542] | 3 | 52 | – | –

Substance | Resp Freq [1] [%] | Total SFC [2] [SFC] | Resp Freq [%] | Total SFC [SFC]
626 (ARAGFAASGVLHLLV) [Peptide 626] | 3 | 48 | – | –
HEEIQLLANDFSTML [Peptide 446] | 3 | 182 | 3 | 182
804 (NSSIVLISLPAIFRG) [Peptide 804] | 3 | 57 | – | –
713 (EGELHLFTPEVVFLL) [Peptide 713] | 3 | 30 | – | –
865 (TPLFMAHYAPFGLLT) [Peptide 865] | 3 | 25 | – | –
1452 (TTPHFLVEGAIIAAY) [Peptide 1452] | 3 | 43 | – | –
400 (MKELLAENLMVMMRD) [Peptide 400] | 3 | 32 | – | –
543 (VIMPWMIFYQQGAVV) [Peptide 543] | 3 | 43 | – | –
257 (FFHIYGMTVLLNAAL) [Peptide 257] | 3 | 35 | – | –
YNVVIYPVTTLRLAM [Peptide 1556] | 3 | 122 | 3 | 122
421 (DPAFRQVFAAQFLPD) [Peptide 421] | 3 | 40 | – | –
732 (PLRVAFLIVLIGTTV) [Peptide 732] | 3 | 33 | – | –
963 (VLVVFLLPALRDGAP) [Peptide 963] | 3 | 25 | – | –
1284 (NAVLFLASDEARYIT) [Peptide 1284] | 3 | 25 | – | –
659 (GLLYVPQLATISATF) [Peptide 659] | 3 | 38 | – | –
281 (IVAHYILQYATEELR) [Peptide 281] | 3 | 25 | – | –
323 (MIEMLAMSDLSLMVK) [Peptide 323] | 3 | 38 | – | –
540 (VVYAFMSLFVVNVVV) [Peptide 540] | 3 | 25 | – | –
1368 (TMMLSLVWPIASLGF) [Peptide 1368] | 3 | 40 | – | –
1204 (TPGLNLVYAHLNRII) [Peptide 1204] | 3 | 30 | – | –
1004 (ARQMLRFLSSPLWRA) [Peptide 1004] | 3 | 27 | – | –

Substance | Resp Freq [1] [%] | Total SFC [2] [SFC] | Resp Freq [%] | Total SFC [SFC]
1393 (ANVRYISGAPQLWVV) [Peptide 1393] | 3 | 42 | – | –
871 (LVYLVGFKTKVSTLL) [Peptide 871] | 3 | 28 | – | –
1350 (LFFLFPLYAMADFST) [Peptide 1350] | 3 | 30 | – | –
586 (ELVWLGAAMIIGAGS) [Peptide 586] | 3 | 37 | – | –
PLAENYLRLNALGAY [Peptide 1364] | 3 | 228 | 3 | 228
658 (VRRVLPALMNQFISL) [Peptide 658] | 3 | 32 | – | –
898 (GQRVITLLASANRDE) [Peptide 898] | 3 | 23 | – | –
1331 (VEAGMVYVTLPPLFV) [Peptide 1331] | 3 | 58 | – | –
ETTRNLIALGTLALI [Peptide 829] | 3 | 93 | 3 | 93
GRLIGWLAKVLAEHP [Peptide 1258] | 3 | 60 | 3 | 60
1458 (HFVSTLSATFPEGED) [Peptide 1458] | 3 | 47 | – | –
672 (ASGTLLFKLTPWIVV) [Peptide 672] | 3 | 25 | – | –
691 (LANPGIVSIPLAFIL) [Peptide 691] | 3 | 23 | – | –
387 (RGQFWIWAGANIAPI) [Peptide 387] | 3 | 47 | – | –
SLHMFFHRLGPVLAR [Peptide 329] | 7 | 167 | 7 | 167
78 (IVGAALFLASDASSF) [Peptide 78] | 3 | 32 | – | –
1244 (LIFDGVFDRFPTLRI) [Peptide 1244] | 3 | 35 | – | –
629 (VQFMPLVIAPQLLLC) [Peptide 629] | 3 | 37 | – | –
760 (AEWVVRTILSLLTVR) [Peptide 760] | 3 | 38 | – | –
1285 (PADASIVKLYYSELL) [Peptide 1285] | 3 | 53 | – | –
